Test: Oxidation-reduction resistance evaluation (cyclic voltammetry)
Type: physicochemical
Details: 0.1 mol/L in 1.0 mol/L aqueous sodium hydrogen carbonate; glass-like carbon electrode, Ag/AgCl reference; sweep rate 100 mV/sec
Procedure: The fluoflavine compound represented by the formula (1-2) was dissolved in an aqueous solution (1.0 mol/L) of sodium hydrogen carbonate (manufactured by Tosoh Corporation, an industrial product) so that the concentration was 0.1 mol/L to produce an electrolyte liquid 10. The electrolyte liquid 10 was added into a sample vial for voltammetry (manufactured by BAS Inc., No. 001056), and a Teflon™ cap for voltammetry (manufactured by BAS Inc., 012671) was attached. A Pt counter electrode (manufactured by BAS Inc., No. 002222), a GCE glass-like carbon electrode (manufactured by BAS Inc., 6.0×3.0 mm, No. 002012), and a saturated KCl/silver/silver chloride reference electrode (manufactured by BAS Inc., No. 013503) were fixed with the Teflon™ cap so as to be immersed in the electrolyte liquid 10, and measurement of cyclic voltammetry was performed with a multi-electrochemical measurement system (manufactured by Hokuto Denko Co., Ltd., HZ-Pro). The potential scanning range was set to −500 mV to 700 mV, and a sweep rate was set to 100 mV/see to perform the measurement.
An electrolyte liquid 12 was prepared in the same manner except that the fluoflavine compound represented by the formula (1-2) in the oxidation-reduction resistance evaluation 1 was changed to the compound represented by the formula (1-17). […]

With `O=S(=O)([O-])c1cc(O)c(O)c(S(=O)(=O)[O-])c1.[Na+].[Na+]` [formula (1-17)] the “oxidation-reduction resistance (cyclic voltammogram, first cycle)” value was “oxidized and then decomposed”.

Reference: US20260138083A1, “CARBON DIOXIDE CONCENTRATOR” (NIPPON KAYAKU KABUSHIKI KAISHA, priority 2023, published 2026)
